Blank lines part the entries; values can stand above or below the molecule they belong to.
Columns and labels:
cMLCK [1] = biological target: T1, cMLCK (Homo sapiens, UniProt Q32MK0); assay: cMLCK activity, ADP-Glo kinase assay; assay type: biochemical; conditions: for cMLCK activity compared with the compound of Synthesis Example 1: ADP-Glo kinase assay, relative to Synthesis Example 1 (LEU-0992); for cMLCK activation action, dose dependence: ADP-Glo assay; for specificity for cMLCK: versus smMLCK and skMLCK
T1 construct: BTN (vendor prefix; by own knowledge, biotinylated); purchased Carna Bioscience #02-460-20N
Method: The cMLCK activation action by 8-hydroxyquinoline compounds was measured by using the ADP-Glo kinase assay (Promega) according to the manufacturer's protocol.
(§1) Purchased purified human cMLCK (BTN-cMLCK, #02-460-20N, Carna Bioscience) as well as in-house purified calmodulin (NM 006888) and cardiac myosin regulatory light chain (MLC2v) (NM 000432) were used to perform phosphorylation to thereby establish an in vitro kinase assay system for measuring cMLCK activity according to the ADP-Glo assay (Promega) or Kumagai method. This system was then applied to high-throughput screening (HTS). The HTS was performed by using multiple domestic compound libraries (compound concentration: 10 μM), and structural development of candidate compounds was performed, thereby developing cMLCK activators based on the 8-hydroxyquinoline (8HQ) skeleton.

[2] = phase 3 clinical trial; cited from earlier work
[3] = biological target: T2, human smooth muscle-type MLCK (smMLCK) (Homo sapiens, UniProt Q15746); assay: specificity: in-vitro kinase reaction with smMLCK and its substrate MYL9, ADP-Glo assay; assay type: biochemical; conditions: smMLCK with substrate MYL9, ADP-Glo assay
T2 construct: made in house
Method: (§2) Next, the specificity of the two 8HQ compounds (LEU-1142 and LEU-1170) for human smooth muscle-type MLCK (smMLCK, NM 053025) and human skeletal muscle-type MLCK (skMLCK, NM 033118), which are cMLCK family proteins, was examined (FIGS. 7-1 and 7-2). In-vitro kinase reactions were performed using smMLCK and its substrate MYL9 (NM 006097), and skMLCK and its substrate MYLPF (NM 013292), which had been all purified in-house, and their activity was measured according to the ADP-Glo assay.

cMLCK [4] = biological target: T1, cMLCK; assay: enzymatic study (Michaelis-Menten kinetics) of cMLCK; assay type: biochemical
Method: as §1

[5] = biological target: T3, human skeletal muscle-type MLCK (skMLCK) (Homo sapiens, UniProt Q9H1R3); assay: specificity: in-vitro kinase reaction with skMLCK and its substrate MYLPF, ADP-Glo assay; assay type: biochemical; conditions: skMLCK with substrate MYLPF
T3 construct: made in house
Method: as §2

cMLCK [6] = biological target: T1, cMLCK; assay: phosphorylation of MLC2v by phos-tag PAGE; assay type: biochemical
[7] = tested on: wild-type human iPS cardiomyocytes; assay: intracellular calcium dynamics (Cal-520, FDSS kinetic plate imager); assay type: cell-based; conditions: wild-type iPSC-CMs, various concentrations, with pacing
Method: CTAs: average changes of calcium transient amplitude at systole, PWD50: pulse width duration measured at 50% CTAs
Wild-type iPSC-CMs were seeded on a 96-well plate at a density of 5×10^4 cells/well and cultured in DMEM with 10% FBS for 24 hours. Subsequently, Cal-520 (ab171868, Abcam) was then added to a final concentration of 5 μM, and the cells were cultured for an additional hour. After removing the medium and washing with HHBS buffer, the buffer was replaced with FluoroBrite DMEM containing various concentrations of LEUO-1154, isoproterenol (positive control group: catecholamine stimulation), or DMSO (negative control group). Intracellular calcium dynamics was then measured with pacing by using an FDSS/ρCell kinetic plate imager (Hamamatsu Photonics K. K.).

SMILES: Oc1c(C(Nc2nccs2)c2ccccc2)ccc2cccnc12 (stereo not drawn) [LEU-1008, 7-[phenyl(thiazol-2-ylamino)methyl]quinolin-8-ol]
cMLCK activity compared with the compound of Synthesis Example 1 (cMLCK [1]): equivalent

SMILES: O=[N+]([O-])c1cccc(C(Nc2nccs2)c2ccc3cccnc3c2O)c1 (stereo not drawn) [LEU-0944, 7-[(3-nitrophenyl) (thiazol-2-ylamino)methyl]quinolin-8-ol]
cMLCK activity compared with the compound of Synthesis Example 1 (cMLCK [1]): equivalent

SMILES: COC(=O)N1CCN(Cc2cccc(NC(=O)Nc3ccc(C)nc3)c2F)CC1 [Omecamtiv mecarbil (OM), Omecamtiv mecarbil]
time to onset of heart failure [2]: prolonging the time to onset of heart failure without worsening prognosis

SMILES: Oc1c(CN2CCC(Cc3ccccc3)CC2)cc(Cl)c2cccnc12 [LEU-0999, 7-[(4-benzylpiperidin-1-yl)methyl]-5-chloroquinolin-8-ol]
cMLCK activity compared with the compound of Synthesis Example 1 (cMLCK [1]): weaker

SMILES: COc1ccc(C(Nc2ccccn2)c2cc(Cl)c3cccnc3c2O)cc1[N+](=O)[O-] (stereo not drawn) [LEU-0997, 5-chloro-7-[(4-methoxy-3-nitrophenyl) (pyridin-2-ylamino)methyl]quinolin-8-ol]
cMLCK activity compared with the compound of Synthesis Example 1 (cMLCK [1]): equivalent

SMILES: CCC(=O)NC(c1ccc(OC)cc1)c1cc([N+](=O)[O-])c2cccnc2c1O (stereo not drawn) [LEU-0993]
cMLCK activity compared with the compound of Synthesis Example 1 (cMLCK [1]): equivalent

SMILES: Oc1cccnc1NC(c1ccc(F)cc1)c1ccc2cccnc2c1O (stereo not drawn) [LEU-0942, 7-{(4-fluorophenyl) [(3-hydroxypyridin-2-yl)amino]methyl}quinolin-8-ol]
cMLCK activity compared with the compound of Synthesis Example 1 (cMLCK [1]): weaker

SMILES: Oc1c(C(c2ccc(C(F)(F)F)cc2)N2CCCCC2)ccc2cccnc12 (stereo not drawn) [LEU-0943, 7-(piperidin-1-yl [4-(trifluoromethyl)phenyl]methyl}quinolin-8-ol]
cMLCK activity compared with the compound of Synthesis Example 1 (cMLCK [1]): weaker

SMILES: Oc1ccccc1C(Nc1nccs1)c1ccc2cccnc2c1O (stereo not drawn) [LEU-0945, 7-[(2-hydroxyphenyl) (thiazol-2-ylamino)methyl]quinolin-8-ol]
cMLCK activity compared with the compound of Synthesis Example 1 (cMLCK [1]): weaker

SMILES: CC(C)NCC(O)c1ccc(O)c(O)c1 (stereo not drawn) [isoproterenol, reference compound]
calcium dynamics [7]: enhanced calcium dynamics

SMILES: Oc1c(C(Nc2ccccn2)c2cccnc2)cc(Cl)c2cccnc12 (stereo not drawn) [LEU-0998, 5-chloro-7-[(pyridin-2-ylamino) (pyridin-3-yl)methyl]quinolin-8-ol]
cMLCK activity compared with the compound of Synthesis Example 1 (cMLCK [1]): weaker

Now from value to molecule:

specificity for smMLCK [3]: Neither compound showed specificity
effect on Km (cMLCK [4]): did not affect Km
cMLCK activation action, dose dependence (cMLCK [1]): dose-dependent
specificity for cMLCK (cMLCK [1]): high specificity for cMLCK
specificity for skMLCK [5]: Neither compound showed specificity
phosphorylation of MLC2v (cMLCK [6]): increase the phosphorylation of MLC2v
SMILES: CCCCC(=O)NC(c1ccc(N2CCOCC2)nc1)c1cc([N+](=O)[O-])c2cccnc2c1O (stereo not drawn) [LEU-1170, N-[(8-hydroxy-5-nitroquinolin-7-yl) (6-morpholinopyridin-3-yl)methyl]pentanamide]

cMLCK activity compared with the compound of Synthesis Example 1 (cMLCK [1]): weaker
SMILES: CCCCC(=O)NC(c1ccc(OC)cc1)c1cc(Cl)c2cccnc2c1O (stereo not drawn) [LEU-1018, N-[(5-chloro-8-hydroxyquinolin-7-yl) (4-methoxyphenyl)methyl]pentanamide]

cMLCK activity compared with the compound of Synthesis Example 1 (cMLCK [1]): weaker
SMILES: CCCCC(=O)NC(c1ccc(OC)cc1)c1ccc2cccnc2c1O (stereo not drawn) [LEU-1128, N-[(8-hydroxyquinolin-7-yl) (4-methoxyphenyl)methyl]pentanamide]

specificity for smMLCK [3]: Neither compound showed specificity
effect on Km (cMLCK [4]): did not affect Km
cMLCK activation action, dose dependence (cMLCK [1]): dose-dependent
specificity for cMLCK (cMLCK [1]): high specificity for cMLCK
specificity for skMLCK [5]: Neither compound showed specificity
phosphorylation of MLC2v (cMLCK [6]): increase the phosphorylation of MLC2v
SMILES: CCCCC(=O)NC(c1ccc(-n2ccnc2)cc1)c1cc([N+](=O)[O-])c2cccnc2c1O (stereo not drawn) [LEU-1142, N-{[4-(1H-imidazol-1-yl)phenyl] (8-hydroxy-5-nitroquinolin-7-yl)methyl}pentanamide]

cMLCK activity compared with the compound of Synthesis Example 1 (cMLCK [1]): equivalent
SMILES: COc1ccc(C(NC(=O)C(C)C)c2cc([N+](=O)[O-])c3cccnc3c2O)cc1 (stereo not drawn) [LEU-1220, N-[(8-hydroxy-5-nitroquinolin-7-yl) (4-methoxyphenyl)methyl]isobutyramide]

cMLCK activity compared with the compound of Synthesis Example 1 (cMLCK [1]): weaker
SMILES: COc1ccc(C(NC(C)=O)c2cc([N+](=O)[O-])c3cccnc3c2O)cc1 (stereo not drawn) [LEU-0990, N-[(8-hydroxy-5-nitroquinolin-7-yl) (4-methoxyphenyl)methyl]acetamide]
